We go through seven compounds from PubChem BioAssay AID743472 (Broad Institute, 2014).

The source made the active and inactive calls.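 The calls were made as follows: active = fitted curve drops past -35% activity change at a concentration no higher than twice the top valid tested dose; inconclusive = no clear call, values can overlap the other calls; inactive = the rest, including activity opposite to the expected direction.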

The experiment can be described thus: viability loss in A549 lung cells – cell-based, luminescence, dry powder, set 12, cytotoxicity control, dose response (AID 743472). Conditions: A549 viability, CellTiter-Glo ATP luminescence, 72 h; at 26 µM (top of the series). Background: ATP-based viability assays read luminescence as a measure of living cells.
Regarding `Cc1ccccc1C1C(C#N)=C(N)Oc2cc(N)ccc21` (configuration not stated), the activity change, negative = cytotoxicity is -2.49% (inactive).

As to `COC(=O)c1ccc(C2C(C#N)=C(N)Oc3cc(N)ccc32)cc1` (configuration not stated), the activity change, negative = cytotoxicity is 4.1% (inactive).

Regarding `COc1ccc(C2=Nn3c(nnc3-c3ccccc3)SC2)cc1OC`, the activity change, negative = cytotoxicity was -5.8% (inactive).

As to `CN1c2ccc(-c3ccc(C#N)cc3)cc2[C@H]2[C@H](CCN2S(=O)(=O)c2ccc(F)cc2)[C@H]1CO`, the activity change, negative = cytotoxicity was 10.6% (inactive).

For `CN(C(=O)CCCOc1ccc2[nH]c(=O)ccc2c1)C1CCCCC1`, the activity change, negative = cytotoxicity is -2.41% (inactive).

For the compound `COc1ccc(CNc2nc(N3CCC[C@H]3CO)ncc2C(=O)NCc2ncccn2)cc1Cl`, the activity change, negative = cytotoxicity is -5.08% (inactive).

With `COc1ccc(C2C(C#N)=C(N)Oc3cc(N)ccc32)cc1` (configuration not stated), the activity change, negative = cytotoxicity was 0.547% (inactive).
